Target: T1, Dihydrofolate reductase (Pneumocystis jirovecii, UniProt Q9UUP5)
T1 sequence (Q9UUP5 whole entry): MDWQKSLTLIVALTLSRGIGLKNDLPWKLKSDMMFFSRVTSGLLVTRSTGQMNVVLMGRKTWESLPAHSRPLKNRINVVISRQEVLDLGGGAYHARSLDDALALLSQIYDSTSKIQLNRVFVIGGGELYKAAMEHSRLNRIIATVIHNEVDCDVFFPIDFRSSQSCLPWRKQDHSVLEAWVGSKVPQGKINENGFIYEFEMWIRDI
Test: Kinase Inhibition Assay

Compound | IC50 [nM]
COc1ccc(Sc2c(C)c3c(N)nc(N)nc3n2C)cc1OC [US11111252, Compound 9] | 234
COc1ccc(Sc2sc3nc(N)nc(N)c3c2C)cc1OC [US11111252, Compound 1] | 260

— BindingDB's records for patent US11111252 (Duquesne University of The Holy Spirit, 2021)
